According to US20220048961A1, “TRANSFERRIN RECEPTOR TARGETING PEPTIDES” (FRED HUTCHINSON CANCER RESEARCH CENTER, priority 2018, published 2022):

Test system: neurotensin receptor (CRE-driven luciferase)
Assay: CRE-luciferase reporter mice, whole-animal brain luminescence (IVIS)
Format: in vivo
Conditions: 1.68 mg rolipram and 0.84 mg forskolin given together IP, luciferin four hours after, FIG. 31

SMILES: COc1ccc(C2CNC(=O)C2)cc1OC1CCCC1 (stereo not shown) [rolipram]
- CRE-driven luciferase induction (brain luminescence), positive control: high levels of luminescence from the animal's brain
